Test results reported in patent publication US7001770B1, “Calpain inhibitors and their applications” (priority 1998, dated 2006).
Square brackets hold non-standard residues; d marks the D form. Peptide text beside a SMILES is read from it. Nle = CCCC[C@H](N)C(=O)O

Columns and labels:
Assay type in all cases: cell-based
DLD1 cells = test: G0/G1 cell cycle arrest by BrdU labeling, flow cytometry; conditions: 5 μM CI-1 for 17 hours, 2 hour pulse; 35% without calpain treatment
Method: (§1) In order to determine any increases in p53 function in response to calpain inhibitor 1, the quantity of cells undergoing G0/G1 cell cycle arrest in response to CI-1 administration, was assayed by bromodeoxyuridine labeling of cells. Each of the cell lines described in Example 2 above were exposed to a concentration of 0 or 5 μM CI-1 (in DMF) as described in Example 3 above. Cell lines treated with DMF alone or 5 μM final concentration of calpain inhibitor 1 for 17 hours were pulse labeled with a final concentration of 10 μM bromodeoxyuridine (Boehringer Mannheim) for two hours. Cells were harvested for bivariate BrdU/DNA flow cytometric analysis by fixation in 70% ethanol, followed digestion with 0.08% pepsin for 30 minutes at 37 degrees. Cells were centrifuged at 1500 RPM, and 2N HCL was added. Cells were incubated at 37 degrees for 20 minutes, followed by addition of 1M sodium borate. Cells were washed in IFA/tween 20 (0.01 M HEPES, 0.005% sodium azide, 0.5% tween 20, 5% FBS, […]), and anti-BrdU antibody, diluted 1:10 in IFA without tween 20, was added for 30 minutes. Cells were washed in IFA/tween 20, and incubated in IFA/tween 20/RNase for 15 minutes at 37 degrees.
(§2) Cells that had incorporated BrdU were stained using a FITC conjugated monoclonal antibody to BrdU (commercially available from Becton-Dickinson) and detected by FACS analysis on a FACScan FACS machine (commercially available from Becton Dickinson).

SK-Hep1 cells = test: as above; conditions: 5 μM CI-1 for 17 hours, 2 hour pulse; DMF control 34%
Method: as §1, §2

HLF cells = test: as above; conditions: 5 μM CI-1 for 17 hours, 2 hour pulse; DMF control 42%
Method: as §1, §2

RKO cells = test: as above; conditions: 5 μM CI-1 for 17 hours, 2 hour pulse; DMF control 47%
Method: as §1, §2

AP-1 = test: Gel shift assay; conditions: HLF cells; 10 μM CI-1; 24 hours post treatment
Method: (§3) The lanes on the gel are labelled as follows: Lane 1=DMF solvent alone control; Lane 2=10 μM CI-1; Lane 3=a null control vector based on ACN53 without the p53 transgene (ZZCB); Lane 4=ZZCB+10 μM CI-1; Lane 5=ACN53 alone and Lane 6=ACN53+ 10 μM CI-1. Panel A illustrates the induction of NF-kb upon administration of calpain inhibitor 1. Panel B illustrates the induction of AP-1 upon administration of calpain inhibitor 1.
(§4) In contrast to these studies, the present invention further provides a method of enhancing transcription of a therapeutic transgene from the CMV promoter. The term “enhancing transcription” refers to an increase in the transcriptional activity of those sequences operably linked to the CMV promter. The term CMV promoter means the immediate early promoter of the cytomegalovirus. The promoter may be isolated as a restriction endonuclease fragment from the commercially available vector pCMVβ (GenBank Accession Number U02451). […] The CMV promoter is a strong constituitive promoter widely utilized in the expression of exogenous transgenes from viral vectors. Recent reports indicated an upregulation of the CMV promoter driven genes in response to recombinant adenoviral infection. […] In response to calpain inhibitor 1 treatment, a 42% increase in NF-kB activation was detected, and a 50% increase in AP1 activation was detected as quantified by densitometer readings. […]

NF-kB = test: Gel shift assay; conditions: HLF cells; 10 μM CI-1; 24 hours post treatment
Method: as §3, §4

[1] = test system: p53 protein levels in Hep3B cells (p53 null); test: Western blot of p53 protein levels; conditions: rAd-p53 in the presence of 10 μM calpain inhibitor 1 versus rAd53 alone; 17 hours
Method: To determine if increases in exogeneous p53 levels occurred in response to CI-1, the p53 null cell line Hep3B was infected with 1×10^9 particle/ml and assayed for p53 protein levels by western blots 17 hours post-infection. No p53 protein was detected in untreated Hep3B. p53 protein was detected in cells infected with rAd53 alone, and increased greater then 10 fold when infected with rAd-p53 in the presence of 10 μM calpain inhibitor 1. […] The enhancement of p53 stability by CI-1 may not, therefore, be the sole mechanism by which enhanced cell death has been achieved. […] Thus, a new mechanism of action is involved other than p53 stability in the increased induction of apoptosis by the combination of CI-1 and p53.
At 17 hours post treatment, cells were lysed in protein lysis buffer (50 mM tris, 250 mM NaCl, 50 mM NaF, 5 mM EDTA and 0.1% NP-40 with 1 mM PMSF). Cell lysates were subjected to electrophoresis. 10 μg of protein was added per lane on a 12% polyacrylamide gel and transfered onto nitrocellulose membranes. The membranes were subjected to western blot analysis using antibodies specific for p53 or p21 (Calbiochem, p53 antibody Ab-6, and p21 antibody Ab-7). […] Blots were developed using enhanced chemiluminescence detection system (Amersham) and quantitated using NIH imaging analysis.

Structure (SMILES): CCCC[C@@H](C=O)NC(=O)[C@H](CC(C)C)NC(=O)[C@H](CC(C)C)NC(C)=O [CI-1, N-acetyl-leu-leu-norleucinal] (Ac-Leu-Leu-[Nle]-aldehyde)
- cells incorporating BrdU (DLD1 cells): about 25%
- cells incorporating BrdU label (SK-Hep1 cells): 8%
- cells incorporating BrdU label (HLF cells): 35%
- cells incorporating BrdU label (RKO cells): 16%
- increase in AP1 activation (densitometer) (AP-1): 50%
- increase in NF-kB activation (densitometer) (NF-kB): 42%
- increase in p53 protein [1]: > 10 fold
